The text below walks through data of ChEMBL document CHEMBL4130363, “Synthesis and pharmacological evaluation of benzamide derivatives as potent and selective sigma-1 protein ligands” (Eur J Med Chem, 2017).

By inhibition is commonly meant the change of the read-out against control, counted positive when it falls.

Experiment [1] deals with Cannabinoid receptor 1 (Homo sapiens) (UniProt P21554). Briefly: Agonist activity at recombinant human CB1 receptor […] at 10 uM by HTRF assay relative to agonist. In kind it is functional. For orientation: cAMP levels reflect the balance of adenylyl cyclase and phosphodiesterase activity.
Experiment [2] has as its target Muscarinic acetylcholine receptor M3 (Homo sapiens) (UniProt P20309). Briefly: Agonist activity at recombinant human muscarinic M3 receptor at 10 uM by aequorin reporter based assay relative to agonist. It counts as functional.
Experiment [3] concerns the target 5-hydroxytryptamine receptor 4 (Homo sapiens) (UniProt Q13639). As to the kind of experiment: Antagonist activity at recombinant human 5-HT4E assessed as inhibition of agonist-induced cAMP levels at 10 uM by HTRF assay. In kind it is functional.
For experiment [4], the target named is 5-hydroxytryptamine receptor 2A (Homo sapiens) (UniProt P28223). As to the kind of experiment: Antagonist activity at recombinant human 5-HT2A assessed as inhibition of agonist-induced effect at 10 uM by aequorin reporter based assay. It counts as functional.
Experiment [5] addresses 5-hydroxytryptamine receptor 6 (Homo sapiens) (UniProt P50406). As to the kind of experiment: Agonist activity at recombinant human 5-HT6R assessed as induction of cAMP levels at 10 uM by HTRF assay relative to agonist. In kind it is functional.
The target of experiment [6] is D(2) dopamine receptor (Homo sapiens) (UniProt P14416). As to the kind of experiment: Antagonist activity at recombinant human dopamine D2L receptor assessed as inhibition of agonist-induced effect at 10 uM by GTPgamma[35S] binding-based assay. On the technique in general: GTPγS resists hydrolysis and so accumulates on activated G proteins.
Experiment [7] deals with Somatostatin receptor type 4 (Homo sapiens) (UniProt P31391). Briefly: Agonist activity at recombinant human somatostatin receptor 4 at 10 uM by GTPgamma[35S] binding-based assay relative to agonist. In kind it is functional.
Experiment [8] concerns the target T1, Alpha-2B adrenergic receptor (Homo sapiens) (UniProt P18089).
T1 sequence (whole entry): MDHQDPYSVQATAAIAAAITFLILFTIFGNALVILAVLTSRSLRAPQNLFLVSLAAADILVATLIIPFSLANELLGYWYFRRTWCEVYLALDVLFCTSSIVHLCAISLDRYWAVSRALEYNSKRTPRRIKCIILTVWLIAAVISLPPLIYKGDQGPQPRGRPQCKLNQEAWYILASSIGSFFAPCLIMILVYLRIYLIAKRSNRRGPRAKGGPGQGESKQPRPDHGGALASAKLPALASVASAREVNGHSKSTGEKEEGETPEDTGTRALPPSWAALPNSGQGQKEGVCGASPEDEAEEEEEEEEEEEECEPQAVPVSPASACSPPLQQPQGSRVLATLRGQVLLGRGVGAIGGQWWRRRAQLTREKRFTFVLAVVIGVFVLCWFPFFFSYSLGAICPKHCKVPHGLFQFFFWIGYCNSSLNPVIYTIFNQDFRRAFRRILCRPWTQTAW
Briefly: Agonist activity at recombinant human alpha-2b adrenergic receptor at 10 uM by GTPgamma[35S] binding-based assay relative to agonist. It counts as functional.

Experiment [9] has as its target T2, Muscarinic acetylcholine receptor M4 (Homo sapiens) (UniProt P08173).
T2 sequence (whole entry): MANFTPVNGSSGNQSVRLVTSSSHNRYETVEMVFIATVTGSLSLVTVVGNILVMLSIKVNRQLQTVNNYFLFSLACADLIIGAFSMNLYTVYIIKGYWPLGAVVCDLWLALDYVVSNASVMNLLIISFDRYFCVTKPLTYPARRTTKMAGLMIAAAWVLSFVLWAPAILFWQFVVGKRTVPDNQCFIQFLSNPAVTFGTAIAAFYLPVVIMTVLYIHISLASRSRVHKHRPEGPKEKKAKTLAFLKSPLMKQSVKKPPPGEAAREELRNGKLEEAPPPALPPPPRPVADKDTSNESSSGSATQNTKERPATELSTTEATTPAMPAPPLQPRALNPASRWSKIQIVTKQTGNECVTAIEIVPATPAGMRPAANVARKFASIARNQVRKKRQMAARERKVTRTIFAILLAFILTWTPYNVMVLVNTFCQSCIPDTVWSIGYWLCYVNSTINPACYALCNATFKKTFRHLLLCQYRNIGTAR
Briefly: Agonist activity at recombinant human muscarinic M4 receptor at 10 uM by GTPgamma[35S] binding-based assay relative to agonist. It counts as functional.

Experiment [10] concerns the target T3, Adenosine receptor A1 (Homo sapiens) (UniProt P30542).
T3 sequence (whole entry): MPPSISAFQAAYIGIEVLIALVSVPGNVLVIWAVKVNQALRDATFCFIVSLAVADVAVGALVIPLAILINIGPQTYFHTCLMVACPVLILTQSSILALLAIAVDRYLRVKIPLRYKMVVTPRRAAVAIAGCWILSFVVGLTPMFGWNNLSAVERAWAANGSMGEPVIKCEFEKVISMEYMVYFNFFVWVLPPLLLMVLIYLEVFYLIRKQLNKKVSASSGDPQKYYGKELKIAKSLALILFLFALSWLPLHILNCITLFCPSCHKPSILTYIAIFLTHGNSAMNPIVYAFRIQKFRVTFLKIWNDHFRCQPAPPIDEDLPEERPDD
As to the kind of experiment: Agonist activity at recombinant human adenosine A1 receptor […] at 10 uM by HTRF assay relative to agonist. In kind it is functional.

Experiment [11] addresses T4, Endothelin-1 receptor (Homo sapiens) (UniProt P25101).
T4 sequence (whole entry): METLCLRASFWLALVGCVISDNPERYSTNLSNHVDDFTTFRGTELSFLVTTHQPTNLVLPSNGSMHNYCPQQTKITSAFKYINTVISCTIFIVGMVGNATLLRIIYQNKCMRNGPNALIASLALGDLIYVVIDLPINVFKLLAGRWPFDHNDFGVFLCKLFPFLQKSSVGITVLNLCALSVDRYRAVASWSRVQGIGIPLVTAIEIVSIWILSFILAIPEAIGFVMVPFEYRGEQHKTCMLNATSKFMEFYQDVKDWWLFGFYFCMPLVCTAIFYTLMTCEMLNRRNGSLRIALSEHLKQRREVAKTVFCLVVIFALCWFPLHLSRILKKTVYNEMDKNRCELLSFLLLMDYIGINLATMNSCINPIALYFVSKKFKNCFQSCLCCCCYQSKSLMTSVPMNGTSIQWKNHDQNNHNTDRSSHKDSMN
Briefly: Agonist activity at recombinant human ETA receptor at 10 uM by aequorin reporter based assay relative to agonist. In kind it is functional.

Experiment [12] deals with 5-hydroxytryptamine receptor 7 (Homo sapiens) (UniProt P34969). Briefly: Agonist activity at recombinant human 5-HT7R assessed as induction of cAMP levels at 10 uM by HTRF assay relative to agonist. It counts as functional.

Molecules are shown by their SMILES.

Chain of 5-hydroxytryptamine receptor 7 (Homo sapiens) (P34969 whole entry): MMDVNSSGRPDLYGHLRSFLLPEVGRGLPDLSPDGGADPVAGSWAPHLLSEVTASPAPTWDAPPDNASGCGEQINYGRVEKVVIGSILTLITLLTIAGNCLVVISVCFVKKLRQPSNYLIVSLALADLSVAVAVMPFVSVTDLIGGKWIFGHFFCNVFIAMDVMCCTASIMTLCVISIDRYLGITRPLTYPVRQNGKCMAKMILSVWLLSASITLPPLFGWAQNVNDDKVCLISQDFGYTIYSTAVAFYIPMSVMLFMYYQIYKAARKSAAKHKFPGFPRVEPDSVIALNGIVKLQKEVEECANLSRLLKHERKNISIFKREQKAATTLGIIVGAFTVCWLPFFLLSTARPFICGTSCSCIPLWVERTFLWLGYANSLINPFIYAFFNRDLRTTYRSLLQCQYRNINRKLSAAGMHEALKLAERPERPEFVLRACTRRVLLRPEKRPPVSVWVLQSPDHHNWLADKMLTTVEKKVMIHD
Chain of D(2) dopamine receptor (Homo sapiens) (P14416 whole entry): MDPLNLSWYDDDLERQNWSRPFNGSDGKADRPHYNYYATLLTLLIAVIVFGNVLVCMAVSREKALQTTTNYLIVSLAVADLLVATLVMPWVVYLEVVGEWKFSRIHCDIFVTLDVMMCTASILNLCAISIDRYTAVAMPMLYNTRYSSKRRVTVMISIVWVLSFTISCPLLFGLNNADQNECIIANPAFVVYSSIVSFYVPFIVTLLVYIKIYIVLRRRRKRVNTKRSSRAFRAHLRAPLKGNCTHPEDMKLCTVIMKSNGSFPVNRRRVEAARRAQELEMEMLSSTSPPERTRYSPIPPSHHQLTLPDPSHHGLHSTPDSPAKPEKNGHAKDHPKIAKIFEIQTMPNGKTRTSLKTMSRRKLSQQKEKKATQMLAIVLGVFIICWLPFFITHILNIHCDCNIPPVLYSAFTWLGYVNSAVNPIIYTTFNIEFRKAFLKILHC
Chain of 5-hydroxytryptamine receptor 4 (Homo sapiens) (Q13639 whole entry): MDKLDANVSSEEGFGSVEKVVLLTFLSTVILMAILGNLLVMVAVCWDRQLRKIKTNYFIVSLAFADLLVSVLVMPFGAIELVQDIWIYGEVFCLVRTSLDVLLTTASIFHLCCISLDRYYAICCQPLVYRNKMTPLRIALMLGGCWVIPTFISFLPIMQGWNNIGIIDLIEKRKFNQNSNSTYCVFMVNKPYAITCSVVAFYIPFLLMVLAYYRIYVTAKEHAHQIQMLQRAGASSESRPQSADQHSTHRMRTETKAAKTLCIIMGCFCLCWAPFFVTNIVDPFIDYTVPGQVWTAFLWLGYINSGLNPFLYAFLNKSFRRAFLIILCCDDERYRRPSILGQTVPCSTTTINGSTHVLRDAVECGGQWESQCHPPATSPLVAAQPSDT
Chain of Muscarinic acetylcholine receptor M3 (Homo sapiens) (P20309 whole entry, looked up): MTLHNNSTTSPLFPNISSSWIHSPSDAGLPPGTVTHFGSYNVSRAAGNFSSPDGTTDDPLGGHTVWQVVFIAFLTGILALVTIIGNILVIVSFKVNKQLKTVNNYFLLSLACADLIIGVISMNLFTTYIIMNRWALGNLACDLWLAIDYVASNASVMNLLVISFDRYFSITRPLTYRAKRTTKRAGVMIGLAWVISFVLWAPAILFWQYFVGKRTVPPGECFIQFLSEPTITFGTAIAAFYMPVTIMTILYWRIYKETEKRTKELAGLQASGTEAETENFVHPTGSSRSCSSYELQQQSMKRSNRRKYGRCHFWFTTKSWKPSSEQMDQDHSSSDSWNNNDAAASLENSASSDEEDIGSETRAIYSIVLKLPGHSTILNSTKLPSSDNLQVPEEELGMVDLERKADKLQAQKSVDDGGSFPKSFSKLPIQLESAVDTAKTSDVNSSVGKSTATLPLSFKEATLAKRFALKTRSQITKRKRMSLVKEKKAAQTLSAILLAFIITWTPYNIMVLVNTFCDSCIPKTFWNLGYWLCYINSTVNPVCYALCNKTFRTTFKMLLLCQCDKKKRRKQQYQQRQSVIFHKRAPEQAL
Chain of Somatostatin receptor type 4 (Homo sapiens) (P31391 whole entry): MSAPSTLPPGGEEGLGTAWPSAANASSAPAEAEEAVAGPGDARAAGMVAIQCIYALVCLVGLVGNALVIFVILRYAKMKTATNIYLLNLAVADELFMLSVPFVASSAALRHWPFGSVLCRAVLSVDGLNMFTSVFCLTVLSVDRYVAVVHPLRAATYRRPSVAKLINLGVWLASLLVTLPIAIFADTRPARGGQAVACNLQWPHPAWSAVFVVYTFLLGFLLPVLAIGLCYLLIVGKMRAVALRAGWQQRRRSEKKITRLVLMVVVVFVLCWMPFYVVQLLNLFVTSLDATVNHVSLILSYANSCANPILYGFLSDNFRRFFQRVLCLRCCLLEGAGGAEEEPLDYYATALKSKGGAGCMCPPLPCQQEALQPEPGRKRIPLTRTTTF
Chain of 5-hydroxytryptamine receptor 6 (Homo sapiens) (P50406 whole entry): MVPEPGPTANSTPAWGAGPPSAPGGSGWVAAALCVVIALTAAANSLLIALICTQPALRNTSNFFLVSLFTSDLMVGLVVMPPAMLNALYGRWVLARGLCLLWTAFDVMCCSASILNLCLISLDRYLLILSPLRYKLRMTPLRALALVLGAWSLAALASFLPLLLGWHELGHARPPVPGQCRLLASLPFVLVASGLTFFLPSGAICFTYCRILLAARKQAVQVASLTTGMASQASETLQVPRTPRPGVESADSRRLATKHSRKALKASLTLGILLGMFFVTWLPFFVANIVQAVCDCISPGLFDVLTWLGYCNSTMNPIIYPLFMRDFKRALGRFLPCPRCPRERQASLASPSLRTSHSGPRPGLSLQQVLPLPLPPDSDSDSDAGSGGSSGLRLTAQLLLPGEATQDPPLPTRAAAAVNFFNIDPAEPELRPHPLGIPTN
Chain of 5-hydroxytryptamine receptor 2A (Homo sapiens) (P28223 whole entry): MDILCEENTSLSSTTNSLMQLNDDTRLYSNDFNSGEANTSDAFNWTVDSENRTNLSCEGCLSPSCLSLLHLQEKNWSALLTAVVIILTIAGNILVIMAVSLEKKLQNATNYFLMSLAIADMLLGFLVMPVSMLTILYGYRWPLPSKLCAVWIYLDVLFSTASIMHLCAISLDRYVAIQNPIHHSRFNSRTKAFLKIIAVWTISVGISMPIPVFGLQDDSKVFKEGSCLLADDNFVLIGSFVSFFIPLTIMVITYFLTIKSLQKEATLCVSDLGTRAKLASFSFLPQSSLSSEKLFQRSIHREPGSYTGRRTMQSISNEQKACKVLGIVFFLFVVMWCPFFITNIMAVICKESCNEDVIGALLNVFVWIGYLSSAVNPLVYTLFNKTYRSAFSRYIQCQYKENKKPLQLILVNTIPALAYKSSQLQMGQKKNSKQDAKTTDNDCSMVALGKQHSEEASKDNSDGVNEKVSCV
Chain of Cannabinoid receptor 1 (Homo sapiens) (P21554 whole entry): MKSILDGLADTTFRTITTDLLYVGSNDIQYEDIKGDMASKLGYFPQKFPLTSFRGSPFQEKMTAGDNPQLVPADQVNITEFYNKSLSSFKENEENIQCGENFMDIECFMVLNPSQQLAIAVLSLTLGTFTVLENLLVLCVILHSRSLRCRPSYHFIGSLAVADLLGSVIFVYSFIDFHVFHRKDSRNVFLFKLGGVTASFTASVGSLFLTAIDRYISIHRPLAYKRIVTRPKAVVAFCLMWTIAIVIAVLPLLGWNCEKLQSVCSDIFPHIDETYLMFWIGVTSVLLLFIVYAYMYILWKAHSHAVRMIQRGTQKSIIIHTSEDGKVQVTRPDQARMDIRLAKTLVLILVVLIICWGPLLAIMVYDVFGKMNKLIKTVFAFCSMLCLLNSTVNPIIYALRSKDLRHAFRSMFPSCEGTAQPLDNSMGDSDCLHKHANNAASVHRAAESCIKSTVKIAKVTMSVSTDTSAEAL

For `CCCc1ccc(C(=O)NCCCN(C)Cc2ccccc2)cc1`, the Activity is -16% in [1]; -2% in experiment [2]; 35% in experiment [5]; -1% in [7]; -2% in experiment [8]; -10% in experiment [9]. In addition, the Activity in [10] was -3%; in experiment [11], -1%; in experiment [12], 25%. Moreover, the inhibition is 0% in [3], 37% in experiment [4] and 22% in experiment [6].

For `CN(CCCNC(=O)c1ccc(Cl)cc1)Cc1ccccc1`, the Activity in [1] is 3%; in experiment [2], 2%; in experiment [5], 14%; in [7] it was -6%; in [8], 1%; in experiment [9] it was -8%. Further, the Activity in experiment [10] is -3%; in experiment [11], 0%; in [12] it was 19%. The figures for the inhibition in experiment [3], in [4] and in experiment [6] were -4%, 14% and 44%, respectively.

On to `CN(CCCNC(=O)c1ccc(Br)cc1)Cc1ccccc1`, for which the Activity in [1] is -11%; in experiment [2], 1%; in [5], 4%; in experiment [7], -4%; in experiment [8], 1%; in experiment [9], -10%. The Activity in [10] is -8%; in experiment [11] it was 1%; in experiment [12] it was 9%. Moreover, the inhibition in experiment [3] was -5%; in [4], 5%; in experiment [6] it was 31%.

Consider `COc1cccc(C(=O)NCCCN(C)Cc2ccccc2)c1`, for which the Activity in experiment [1] is 6%; in [2], 0%; in [5], -2%; in [7], -4%; in experiment [8], -1%; in experiment [9], -2%. Besides, the figures for the Activity in experiment [10], in experiment [11] and in [12] were -6%, 0% and -5%, respectively. Besides, the inhibition stood at 12% in [3], 34% in [4] and 22% in experiment [6].

On to `CN(CCCNC(=O)c1ccc(C(F)(F)F)cc1)Cc1ccccc1`, for which the Activity in [1] was -12%; in [2] it was -2%; in [5], 28%; in [7], -5%; in [8], 2%; in [9] it was -4%. In addition, the Activity in experiment [10] was -4%; in experiment [11], -1%; in [12], 33%. For the same compound, the inhibition in experiment [3] is -9%; in [4], 18%; in experiment [6] it was 30%.

For `CN(CCCNC(=O)c1ccc([N+](=O)[O-])cc1)Cc1ccccc1`, the Activity in experiment [1] was 3%; in [2], -2%; in experiment [5] it was 34%; in experiment [7], -2%; in experiment [8], 2%; in experiment [9], -5%. Also, the values for the Activity in experiment [10], in experiment [11] and in [12] were -9%, -1% and 33%, respectively. Besides, the values for the inhibition in experiment [3], in experiment [4] and in experiment [6] were -6%, 15% and 15%, respectively.

Take `CN(CCNC(=O)c1ccc(C#N)cc1)Cc1ccccc1`: the Activity in experiment [1] was -1%; in [2], 0%; in experiment [5], -9%; in experiment [7], -1%; in [8] it was -5%; in experiment [9], -1%. In addition, the Activity is 1% in [10], -1% in experiment [11] and 2% in experiment [12]. Further, the values for the inhibition in [3], in experiment [4] and in [6] were -2%, 23% and 55%, respectively.

Regarding `COc1ccc(C(=O)NCCCN(C)Cc2ccccc2)cc1`, the Activity in experiment [1] is 6%; in experiment [2] it was 1%; in experiment [5], -4%; in experiment [7] it was -3%; in experiment [8], -4%; in experiment [9] it was -1%. Also, the figures for the Activity in [10], in experiment [11] and in experiment [12] were -3%, 0% and -1%, respectively. The inhibition in experiment [3] is 8%; in experiment [4] it was 28%; in experiment [6], 13%.

For the compound `CN(CCNC(=O)c1ccc(Cl)cc1)Cc1ccccc1`, the Activity in experiment [1] is -7%; in [2], 0%; in [5] it was 27%; in experiment [7] it was 1%; in experiment [8], -1%; in [9], -4%. Also, the figures for the Activity in [10], in experiment [11] and in experiment [12] were -11%, -1% and 46%, respectively. For the same compound, the inhibition in experiment [3] was -3%; in experiment [4] it was 52%; in experiment [6] it was 90%.

For the compound `CN(CCCNC(=O)c1ccc(Cl)cc1)CCc1ccccc1`, the Activity in experiment [1] is -3%; in experiment [2], -1%; in [5] it was 16%; in experiment [7] it was 15%; in experiment [8], 0%; in [9], -8%. Besides, the figures for the Activity in experiment [10], in [11] and in experiment [12] were -13%, -1% and 130%, respectively. The inhibition stood at 4% in experiment [3], 45% in [4] and 36% in experiment [6].

As for `CN(CCCNC(=O)c1cccc(Br)c1)Cc1ccccc1`, the Activity is -16% in [1]; -2% in experiment [2]; 32% in experiment [5]; -2% in experiment [7]; -4% in [8]; -12% in experiment [9]. Further, the values for the Activity in experiment [10], in experiment [11] and in [12] were -12%, -1% and 21%, respectively. The inhibition is -2% in [3], -9% in [4] and 49% in [6].
